Source: patent US5703085A, “Xanthine derivatives” (Kyowa Hakko Kogyo Co., Ltd., priority 1994, dated 1997)
Read-outs that look alike come from different tables or passages of the source.

How the values were obtained:
A2 Receptor = biological target: T1, A2 Receptor (Rattus norvegicus, UniProt P30543); experiment: Adenosine A2 receptor binding test (inhibition of 3H-CGS 21680 binding); conditions: rat corpus striatum, 3H-CGS 21680 4.0 nM
T1 construct: from tissue; host or cells: rat corpus striatum (membrane suspension)
Procedure: Adenosine Receptor Antagonistic Activity (Adenosine A2 Receptor Binding Test)
The test was conducted according to the method of Bruns et al. [Mol. Pharmacol., 29, 331 (1986)] with slight modification.
Corpus striatum of a rat was suspended in ice-cooled 50 mM Tris (hydroxymethyl) aminomethane hydrochloride (Tris HCl) buffer (pH 7.7) by using Polytron homogenizer (manufactured by Kinematica Co.). The suspension was centrifuged (50,000×g, 10 minutes), and the precipitate was suspended again in the same amount of 50 mM Tris HCl buffer. The suspension was centrifuged under the same conditions, and the final precipitate was suspended in 50 mM Tris HCl buffer [containing 10 mM magnesium chloride and 0.02 unit/mg tissue of adenosine deaminase (manufactured by Sigma Co.)] to give a tissue concentration of 5 mg (wet weight)/ml.
To 1 ml of the tissue suspension thus prepared were added 50 μl of tritium labeled CGS 21680 {^3 H-2-[p-(2-carboxyethyl) phenethylamino]-5'-(N-ethylcarboxamide)-adenosine: 40 Ci/mmol; manufactured by New England Nuclear Co. [J. Pharmacol. Exp. Ther., 251, 888 (1989)]} (final concentration: 4.0 nM) and 50 μl of a test compound. The resulting mixture was allowed to stand at 25° C. for 120 minutes and then rapidly filtered by suction through a glass fiber filter (GF/C; manufactured by Whatman Co.). The filter was immediately washed three times with 5 ml each of ice-cooled 50 mM Tris HCl buffer, and transferred to a vial, and a scintillator (EX-H; manufactured by Wako Pure Chemical Industries, Ltd.) was added thereto. The radioactivity on the filter was determined with a liquid scintillation counter (manufactured by Packard Instrument Co.).
The inhibition rate of the test compound against the binding of A2 receptors (^3 H-CGS 21680 binding) was calculated by the following equation: [formula] [Notes]B: Amount of the binding in the presence of the test compound.
T: Amount of the total binding.
N: Amount of the nonspecific binding.
Amount of the total binding means the amount of radioactivity of ^3 H-CGS 21680 bound in the absence of the test compound. Amount of the nonspecific binding means the amount of radioactivity of ^3 H-CGS 21680 bound in the presence of 100 μM cyclopentyladenosine (CPA; manufactured by Sigma Co.). Amount of the binding in the presence of the test compound means the amount of radioactivity of ^3 H-CGS 21680 bound in the presence of the test compound at various levels of concentrations.

[1] = Effect on haloperidol-induced catalepsy; format: in vivo, male ddY mice; conditions: 10 mg/kg po; for Total Score (catalepsy): 1 h after compound; for inhibition in vivo at 10 mg/kg: Mus musculus, 1 h, decrease in total score vs control group, read-out: Remission Rate (%)
Procedure: Effect on Haloperidol-Induced Catalepsy
Parkinson's disease is a clinical syndrome caused by degeneration and cell death of nigrostriatal dopaminergic neurons. Administration of haloperidol (dopamine D1 /D2 antagonist) induces catalepsy resulting from the blockade of postsynaptic dopamine D2 receptors.
The experiment was carried out using several groups of 5-week-old male ddY mice (weighing 22 to 24 g, Japan SLC), each group consisting of 5 or 10 mice. Haloperidol (manufactured by Janssen Pharmaceutica) was suspended in 0.3% CMC and imtraperitoneally administered to each mouse at a dose of 1.0 mg/kg. A test compound was suspended in injectable distilled water (manufactured by Otsuka Pharmaceutical Co., Ltd.) after adding Tween 80 [polyoxyethylene (20) sorbitan monooleate]. L-DOPA (manufactured by Kyowa Hakko Kogyo Co., Ltd.) and benserazide hydrochloride (manufactured by Kyowa Hakko Kogyo Co., Ltd.) were suspended in 0.3% CMC. One hour after the intraperitoneal administration of haloperidol, the suspension containing the test compound or the suspension containing no test compound [injectable distilled water (manufactured by Otsuka Pharmaceutical Co., Ltd.) containing Tween 80; control] were orally administered to the separate groups of the mice (0.1 ml per 10 g of body weight). One hour after the administration of the test compound, the forelimbs of each mouse and subsequently the hindlimbs of the same mouse were placed on a 4.5 cm-high, 1.0 cm-wide bar and catalepsy was estimated. All of the test compounds were orally administered at a dose of 10 mg/kg, and L-DOPA (100 mg/kg) and benserazide (25 mg/kg) were intraperitoneally administered together as a control. The catalepsy score and the standard of judgment are shown below. […]
Score Duration of the category
0: forelimbs less than 5 seconds
hindlimbs less than 5 seconds
1: forelimbs from 5 (inclusive)
to 10 (exclusive) seconds
2: forelimbs 10 seconds or more
3: (1) forelimbs from 5 (inclusive)
hindlimbs from 5 (inclusive)
or (2) forelimbs less than 5 seconds
hindlimbs 5 seconds or more
4: (1) forelimbs 10 seconds or more
or (2) forelimbs from 5 (inclusive)
hindlimbs 10 seconds or more
5: forelimbs 10 seconds or more
The effect of the compounds was evaluated by the total of the catalepsy scores of 5 or 10 mice in each group (25 or 50 points at the maximum). The groups wherein the total score was not more than 20 or 40 points were estimated to be effective. The number of the animals showing remission against catalepsy is the number of the mice for which the catalepsy score was not more than 4 points in 5 or 10 mice.

[2] = Effect on clonidine-induced aggressive behavior; format: in vivo, male ddY mice; conditions: 2.5 mg/kg, po, clonidine 20 mg/kg ip; for Number of the Biting Attacks (mean ± S.E.M.), Test Compound-Treated Group: 30 min count
Procedure: Effect on Clonidine-Induced Aggressive Behavior
The enhancement effect of the test compounds on the aggressive behavior induced by intraperitoneal administration of clonidine [Eur. J. Pharmacol., 29, 374 (1968)] was investigated.
The experiment was performed using several groups of male ddY mice weighing 20 to 25 g (Japan SLC), each group consisting of two mice. A test compound was suspended in injectable distilled water (manufactured by Otsuka Pharmaceutical Co., Ltd.) after adding Tween 80. Clonidine hydrochloride (manufactured by Sigma Co.) was dissolved in physiological saline solution (manufactured by Otsuka Pharmaceutical Co., Ltd.). The suspension containing the test compound and the suspension containing no test compound (control) were orally administered to the separate groups of the mice (0.1 ml per 10 g of body weight). Sixty minutes after the oral administration of the test compound, clonidine hydrochloride (20 mg/kg) was intraperitoneally administered. The number of biting attacks during the 30 minutes immediately after the clonidine treatment was counted. The effect of the compounds was evaluated by comparing the number of biting attacks of the test compound-administered groups with that of control groups (significance test: Student' t-test).

[3] = 5 mice (max 25 points; control 25)
[4] = out of 5 mice (score not more than 4)
[5] = out of 10 mice (score not more than 4)

T1 sequence (P30543 whole entry): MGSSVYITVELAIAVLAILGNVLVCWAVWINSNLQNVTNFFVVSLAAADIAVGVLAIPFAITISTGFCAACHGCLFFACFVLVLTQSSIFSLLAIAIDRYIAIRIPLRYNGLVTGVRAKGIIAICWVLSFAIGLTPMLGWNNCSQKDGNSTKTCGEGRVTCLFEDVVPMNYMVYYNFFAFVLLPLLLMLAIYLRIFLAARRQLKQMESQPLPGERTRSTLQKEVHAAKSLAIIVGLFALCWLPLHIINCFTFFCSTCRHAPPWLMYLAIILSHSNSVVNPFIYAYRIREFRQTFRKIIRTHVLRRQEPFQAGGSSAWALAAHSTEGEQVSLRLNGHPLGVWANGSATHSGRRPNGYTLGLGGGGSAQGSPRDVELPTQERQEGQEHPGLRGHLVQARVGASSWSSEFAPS

Row | SMILES | A2 Receptor Inhibition Rate (%) (A2 Receptor; 10^-6 M) | A2 Receptor Inhibition Rate (%) (A2 Receptor; 10^-7 M) | also measured
1 | CCCn1c(=O)c2c(nc(/C=C/c3ccc(OC(C)=O)c(OC(C)=O)c3)n2C)n(CCC)c1=O [Compound 1, (E)-8-(3,4-Diacetoxystyryl)-7-methyl-1,3-dipropylxanthine] | 93 | 89 | –
2 | CCCn1c(=O)c2c(nc(/C=C/c3ccc(OC)c(OC(C)=O)c3)n2C)n(CCC)c1=O [Compound 3, (E)-8-(3-Acetoxy-4-methoxystyryl)-7-methyl-1,3-dipropylxanthine] | 96 | 61 | –
3 | CCCn1c(=O)c2c(nc(/C=C/c3ccc(OC(C)=O)c(OC)c3)n2C)n(CCC)c1=O [Compound 4, (E)-8-(4-Acetoxy-3-methoxystyryl)-7-methyl-1,3-dipropylxanthine] | 98 | 94 | Total Score (catalepsy) [1, 3]: 3; Number of Animals Showing Remission [1, 4]: 5; inhibition in vivo at 10 mg/kg ([1]; 5 mice): 88%; Ratio of Attacks: Test Compd.-Treated Group/Control Group [2]: 11.0; Number of the Biting Attacks (mean ± S.E.M.), Test Compound-Treated Group [2]: 47.4 ± 11.1
4 | CCn1c(=O)c2c(nc(/C=C/c3ccc(OC(=O)c4ccccc4)c(OC)c3)n2C)n(CC)c1=O [Compound 7, (E)-8-(4-Benzoyloxy-3-methoxystyryl)-1,3-diethyl-7-methylxanthine] | 97 | 87 | Total Score (catalepsy) [1, 3]: 14; Number of Animals Showing Remission [1, 4]: 3; inhibition in vivo at 10 mg/kg ([1]; 5 mice): 44%
5 | CCCn1c(=O)c2c(nc(/C=C/c3cc(OC(C)=O)cc(OC(C)=O)c3)n2C)n(CCC)c1=O [Compound 9, (E)-8-(3,5-Diacetoxystyryl)-7-methyl-1,3-dipropylxanthine] | 96 | 88 | –
6 | CCn1c(=O)c2c(nc(/C=C/c3ccc(OC(=O)C(C)(C)C)c(OC)c3)n2C)n(CC)c1=O [Compound 13, (E)-1,3-Diethyl-8-(3-methoxy-4-pivaloyloxystyryl)-7-methylxanthine] | – | – | Total Score (catalepsy) ([1]; 10 mice (max 50 points)): 14; Number of Animals Showing Remission [1, 5]: 9; inhibition in vivo at 10 mg/kg ([1]; 10 mice): 72%; Ratio of Attacks: Test Compd.-Treated Group/Control Group [2]: 10.1; Number of the Biting Attacks (mean ± S.E.M.), Test Compound-Treated Group [2]: 24.3 ± 6.6
7 | C=CCn1c(=O)c2c(nc(/C=C/c3ccc(OC(C)=O)c(OC)c3)n2C)n(CC=C)c1=O [Compound 15, (E)-8-(4-Acetoxy-3-methoxystyryl)-1,3-diallyl-7-methylxanthine] | 91 | 85 | –
8 | CCn1c(=O)c2c(nc(/C=C/c3ccc(OC)c(OC(C)=O)c3)n2C)n(CC)c1=O [Compound 16, (E)-8-(3-Acetoxy-4-methoxystyryl)-1,3-diethyl-7-methylxanthine] | 96 | 81 | –
9 | CCn1c(=O)c2c(nc(/C=C/c3cc(OC)c(OC(C)=O)c(OC)c3)n2C)n(CC)c1=O [Compound 17, (E)-8-(4-Acetoxy-3,5-dimethoxystyryl)-1,3-diethyl-7-methylxanthine] | 97 | 80 | Total Score (catalepsy) ([1]; 10 mice (max 50 points)): 30; Number of Animals Showing Remission [1, 5]: 7; inhibition in vivo at 10 mg/kg ([1]; 10 mice): 40%
10 | CCn1c(=O)c2c(nc(/C=C/c3cc(OC)c(OC(=O)c4ccccc4)c(OC)c3)n2C)n(CC)c1=O [Compound 18, (E)-8-(4-Benzoyloxy-3,5-dimethoxystyryl)-1,3-diethyl-7-methylxanthine] | 97 | 82 | Total Score (catalepsy) ([1]; 10 mice (max 50 points)): 30; Number of Animals Showing Remission [1, 5]: 7; inhibition in vivo at 10 mg/kg ([1]; 10 mice): 40%
11 | C=CCn1c(=O)c2c(nc(/C=C/c3cc(OC)c(OC(C)=O)c(OC)c3)n2C)n(CC=C)c1=O [Compound 19, (E)-8-(4-Acetoxy-3,5-dimethoxystyryl)-1,3-diallyl-7-methylxanthine] | 96 | 91 | –
12 | CCn1c(=O)c2c(nc(/C=C/c3cccc(OC(C)=O)c3)n2C)n(CC)c1=O [Compound 21, (E)-8-(3-Acetoxystyryl)-1,3-diethyl-7-methylxanthine] | 96 | 81 | –
13 | CCn1c(=O)c2c(nc(/C=C/c3cccc(OC(=O)c4ccccc4)c3)n2C)n(CC)c1=O [Compound 22, (E)-8-(3-Benzoyloxystyryl)-1,3-diethyl-7-methylxanthine] | 99 | 92 | –
14 | CCn1c(=O)c2c(nc(/C=C/c3cc(OC)ccc3OC(C)=O)n2C)n(CC)c1=O [Compound 23, (E)-8-(2-Acetoxy-5-methoxystyryl)-1,3-diethyl-7-methylxanthine] | 101 | 90 | –
15 | CCn1c(=O)c2c(nc(/C=C/c3cccc(OC)c3OC(C)=O)n2C)n(CC)c1=O [Compound 25, (E)-8-(2-Acetoxy-3-methoxystyryl)-1,3-diethyl-7-methylxanthine] | 101 | 95 | –
16 | CCn1c(=O)c2c(nc(/C=C/c3cccc(OC(C)=O)c3OC(C)=O)n2C)n(CC)c1=O [Compound 26, (E)-8-(2,3-Diacetoxystyryl)-1,3-diethyl-7-methylxanthine] | 101 | 75 | –
